We go through 9 molecules from patent US11766447B2, “3′3′-cyclic dinucleotide analogue comprising a cyclopentanyl modified nucleotide as sting modulator” (INSTITUTE OF ORGANIC CHEMISTRY AND BIOCHEMISTRY ASCR, V.V.I., priority 2019, dated 2023).

In experiment [1] the target is T1, WT STING (Homo sapiens, UniProt Q86WV6, H232R). Briefly: Digitonin assay using 293T wtSTING-FL reporter cells. The experiment is classed as cell-based. On the set-up: host or cells: 293T (ATCC CRL-3216), stably transfected, with 4xISRE firefly luciferase reporter. To be noted: 293T wtSTING-FL cells, ISRE firefly luciferase; compounds in Digitonin buffer 30 minutes, then 5 hours; 8-point curve.
Target sequence in this assay (Q86WV6 whole entry H232R): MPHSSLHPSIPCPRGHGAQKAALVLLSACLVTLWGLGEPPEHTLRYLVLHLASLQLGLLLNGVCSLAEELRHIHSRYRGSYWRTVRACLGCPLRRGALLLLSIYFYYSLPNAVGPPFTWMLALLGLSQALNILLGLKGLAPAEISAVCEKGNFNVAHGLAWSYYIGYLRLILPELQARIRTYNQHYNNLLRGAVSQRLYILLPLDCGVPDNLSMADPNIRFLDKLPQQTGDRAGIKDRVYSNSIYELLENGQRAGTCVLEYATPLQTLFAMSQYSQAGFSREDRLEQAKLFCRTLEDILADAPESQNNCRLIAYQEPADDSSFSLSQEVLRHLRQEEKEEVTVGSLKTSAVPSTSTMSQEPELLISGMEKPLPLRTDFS

In experiment [2] the target is T1, WT STING. Nature of the experiment: Differential scanning fluorimetry (DSF) with WT STING. The experiment is classed as binding. To be noted: thermal shift vs apoprotein; 150 μM CDN; truncated human WT STING 0.1 mg/ml. Also noted: 8xHis (N, cleaved yes); SUMO (N, cleaved yes); made in house; host or cells: E. coli Rosetta-gami B (DE3). The essentials:
(§1)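 […] STING proteins, alone or with CDNs, in triplicate, thermally denatured on a real-time PCR cycler. Denaturing temperatures taken from first-derivative curves; shift = mean Tm of STING–CDN complex minus mean Tm of apoprotein.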
Target sequence in this assay (Q86WV6 140-343 H232R): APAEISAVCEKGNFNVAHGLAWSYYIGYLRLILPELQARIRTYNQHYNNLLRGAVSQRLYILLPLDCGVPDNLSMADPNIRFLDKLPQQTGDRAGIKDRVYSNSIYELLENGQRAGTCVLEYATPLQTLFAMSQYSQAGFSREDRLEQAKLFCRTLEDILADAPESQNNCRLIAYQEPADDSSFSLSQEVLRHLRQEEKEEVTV
In general terms: Differential scanning fluorimetry follows unfolding on heating by fluorescence.

The target of the next experiment is T2, AQ STING (G230A-R293Q) (Homo sapiens, UniProt Q86WV6, G230A/H232R/R293Q).
T2 construct: 8xHis (N, cleaved yes); SUMO (N, cleaved yes); made in house; host or cells: E. coli Rosetta-gami B (DE3)
T2 sequence (Q86WV6 140-343 G230A/H232R/R293Q): as the sequence (Q86WV6 140-343 H232R) above, with G91A, R154Q counted along it
Briefly: Differential scanning fluorimetry (DSF) with AQ STING. The experiment is classed as binding. To be noted: thermal shift vs apoprotein; 150 μM CDN; truncated human AQ STING 0.1 mg/ml. The essentials:
as §1

Experiment [3] addresses T1, WT STING. Nature of the experiment: 293T WT STING standard reporter assay. Also noted: host or cells: 293T (ATCC CRL-3216), stably transfected, with 4xISRE firefly luciferase reporter. To be noted: 293T wtSTING-FL cells, ISRE firefly luciferase; no digitonin; 7 hours with compounds; 8-point curve. The experiment is classed as cell-based. The text has this: Two complementary oligonucleotides of the sequence […] […] […] […] […] The oligonucleotides were mixed in equal molar amounts, hybridized, and cleaved by restriction endonucleases HindIII (cat. #. R0104S, NEB, Ipswich, USA) and BglII (cat. #R0144S, NEB, Ipswich, USA). Ultimately, they were ligated into plasmid pGL4.27 (cat. #E6651, Promega, Madison, USA) linearized with the same enzymes. As result the sequence with four ISRE sites was placed upstream of the minimum promoter of firefly luciferase reporter gene.
After 5 minutes incubation at room temperature (RT), 250 μL of the mixture was added dropwise to the cells in one well. Cells were incubated 36 hours at 37° C. with 5% CO2, and then detached with 0.05% Trypsin and 0.22 g/L EDTA (both cat. #L0941, Biowest, Riverside, USA).
Transfected cells were seeded onto poly-D-lysine coated six well plates at density 50,000 cells per 1 cm^2 in DMEM medium with high glucose containing 10% heat inactivated FBS, 30 μg/mL blasticidin (cat. #ant-b1-05, InvivoGen, San Diego, USA), 0.06 mg/ml Penicillin G and 0.1 mg/ml Streptomycin Sulfate (both cat. #. L0018, Biowest, Riverside, USA). The medium was replenished every 3-4 days until visible colonies of cells resistant to blasticidin were formed.
Blasticidin resistant cells stably expressing WT STING were further transfected with […] plasmid following the same procedure as described above. […] Homogeneous culture of stably double transfected cells was prepared by limiting dilution of cells in 96 well plates and wells with cells were selected that originated from a single cell.
The medium was removed next day and three-fold serial dilutions of compounds in 100 μl medium were added to the cells. The plates with cells were incubated for 7 hours at 37° C. with 5% CO2. After 50 μl of the medium was removed, 30 μl of ONE-Glo™ Luciferase Assay System reagent (cat. #E6120, Promega, Madison, USA) was added to each well and luminescence was read on Synergy H1 (Biotek, Winooski, USA).
Target sequence in this assay (Q86WV6 whole entry H232R): as the sequence (Q86WV6 whole entry H232R) above
(In general: Reporter assays use an easily measured gene product as a stand-in for the process of interest.)

The test system of experiment [4] is peripheral blood mononuclear cells (PBMC). Briefly: Peripheral blood mononuclear cell (PBMC) assay. The settings on record: PBMC, 1 h with compounds, washed, 15 hour incubation, average of one to four donors. In kind it is cell-based. As to the method:
Selected compounds were tested in an in vitro peripheral blood mononuclear cell (PBMC) assay. […] Serially diluted tested compounds were added to wells in 50 μl of cultivation medium and cell were incubated with compounds for 1 h at 37° C. with 5% CO2. Plates with cells were then spun 500 g for 5 minutes and medium was removed. Cells were washed twice with the cell culture medium by the use of centrifugation and gently resuspended in 100 μl medium without compounds. After 15 hour incubation at 37° C. with 5% CO2, the cell culture medium was collected and the levels of interferon-alpha (INF-α), interferon-gamma (INF-γ) and tumor necrosis factor-alpha (TNF-α) were determined with ProcartaPlex Assays (ThermoFisher, Waltham, USA) and MAGPIX System (Merck KGaA, Darmstadt, Germany). […] Values reported are an average of runs from one to four donors.

Setting [5] is: interferon-alpha level, read-out: PBMC EC50 (μM) IFN-α.
Where [6] appears, read: interferon-gamma level, read-out: PBMC EC50 (μM) IFN-γ.
Where [7] appears, read: tumor necrosis factor-alpha level, read-out: PBMC EC50 (μM) TNF-α.

Like-named read-outs stand apart in the source and are kept apart here.

Take `Nc1ncnc2c1ncn2[C@@H]1C[C@@H]2COP(=O)(S)OC3C(F)[C@H](n4cnc5c(N)ncnc54)O[C@@H]3COP(=O)(S)OC2C1F` (single isomer, unassigned) [Compound 102a]: the concentration giving a half-maximal response (EC50) (usually the midpoint of the concentration-response curve) on WT STING [1] was determined as 110 nM; on WT STING [3], 1800 nM. Moreover, the ΔTm (as a rule, the shift of the melting midpoint relative to a reference) at 150 µM on WT STING [2] amounted to 6.7 °C; on AQ STING (G230A-R293Q), 11.2 °C.

`Nc1ncnc2c1ncn2[C@@H]1C[C@@H]2COP(=O)(S)OC3C(F)[C@H](n4cnc5c(N)ncnc54)O[C@@H]3COP(=O)(S)OC2C1F` (single isomer, unassigned) [Compound 102b]: the values for the EC50 at WT STING [1] and at WT STING [3] were 5 nM and 700 nM, respectively. Moreover, the “DSF ΔTm (° C.) WT STING” value at WT STING [2] turned out to be 11.9 °C. In addition, on AQ STING (G230A-R293Q), the “DSF ΔTm (° C.) AQ STING” value was 16.9 °C.

On to `Nc1ncnc2c1ncn2[C@@H]1C[C@@H]2COP(=O)(S)OC3C(F)[C@H](n4cnc5c(N)ncnc54)O[C@@H]3COP(=O)(S)OC2C1F` (single isomer, unassigned) [Compound 102d], for which the values for the EC50 on WT STING [1] and on WT STING [3] were 10 nM and 400 nM, respectively.

Turning to `Nc1ncnc2c1ncn2[C@@H]1C[C@@H]2COP(=O)(O)O[C@H]3[C@@H](F)[C@H](n4cnc5c(N)ncnc54)O[C@@H]3COP(=O)(S)O[C@H]2[C@H]1F` (single isomer, unassigned) [Compound 130a], the EC50 on WT STING [1] came out at 10 nM; on WT STING [3] it was 1000 nM. The results for the ΔTm at 150 µM at WT STING [2] and at AQ STING (G230A-R293Q) were 14.7 °C and 20.7 °C, respectively.

Consider `Nc1ncnc2c1ncn2[C@@H]1C[C@@H]2COP(=O)(O)O[C@H]3[C@@H](F)[C@H](n4cnc5c(N)ncnc54)O[C@@H]3COP(=O)(S)O[C@H]2[C@H]1F` (single isomer, unassigned) [Compound 130b], for which the EC50 came out at 10 nM at WT STING [1] and 1200 nM on WT STING [3]. Further, the “DSF ΔTm (° C.) WT STING” value on WT STING [2] is 13.6 °C. In addition, the “DSF ΔTm (° C.) AQ STING” value on AQ STING (G230A-R293Q) is 20.3 °C.

For `Nc1ncnc2c1ncn2[C@@H]1C[C@@H]2COP(=O)(S)OC3C[C@H](n4cnc5c(N)ncnc54)O[C@@H]3COP(=O)(S)OC2C1F` (single isomer, unassigned) [Compound 142b], the results for the EC50 at WT STING [1] and at WT STING [3] were 20 nM and 500 nM, respectively.

Consider `CC(C)OC(=O)OCOP1(=O)OC[C@H]2O[C@@H](n3cnc4c(N)ncnc43)C(F)C2OP(=O)(OCOC(=O)OC(C)C)OC[C@H]2C[C@@H](n3cnc4c(N)ncnc43)C(F)C2O1` (stereo partly drawn) [Compound 143b, {[(1R,6R,8R,9R,10R,15R,17R,18S)-8,17-bis(6-amino-9H-purin-9-yl)-9,18-difluoro-3,12-dioxo-3-({[(propan-2-yloxy)carbonyl]oxy}methoxy)-2,4,7,11,13-pentaoxa-3λ^5,12λ^5-diphosphatricyclo[13.3.0.0^6,10]octadecan-12-yl]oxy}methyl propan-2-yl carbonate], for which the EC50 in experiment [4] (setting [5]) came out at 0.3 µM; in experiment [4] (setting [6]), 0.15 µM; in experiment [4] (setting [7]), 0.3 µM; on WT STING [3] it was 5 nM.

Consider `CCC(C)(C)C(=O)OCOP1(=O)OC[C@H]2O[C@@H](n3cnc4c(N)ncnc43)C(F)C2OP(=O)(OCOC(=O)C(C)(C)CC)OC[C@H]2C[C@@H](n3cnc4c(N)ncnc43)C(F)C2O1` (stereo partly drawn) [Compound 144b, {[(1R,6R,8R,9R,10R,15R,17R,18S)-8,17-bis(6-amino-9H-purin-9-yl)-3-{[(2,2-dimethylbutanoy)oxy]methoxy}-9,18-difluoro-3,12-dioxo-2,4,7,11,13-pentaoxa-3λ^5,12λ^5-diphosphatricyclo[13.3.0.0^6,10]octadecan-12-yl]oxy}methyl 2,2-dimethylbutanoate], for which the EC50 in experiment [4] (setting [5]) was determined as 0.04 µM; in experiment [4] (setting [6]), 0.05 µM; in experiment [4] (setting [7]), 0.02 µM; on WT STING [3] it was 1 nM.

Turning to `CC1(C(=O)OCOP2(=O)OC[C@H]3O[C@@H](n4cnc5c(N)ncnc54)C(F)C3OP(=O)(OCOC(=O)C3(C)CCCCC3)OC[C@H]3C[C@@H](n4cnc5c(N)ncnc54)C(F)C3O2)CCCCC1` (some centres unmarked) [Compound 145c], the EC50 in experiment [4] (setting [5]) was 0.04 µM; in experiment [4] (setting [6]) it was 0.01 µM; in experiment [4] (setting [7]), 0.02 µM; at WT STING [3], 6 nM.
